Values of other authors in patent US10589003B2, “Methods for coating surfaces with antimicrobial agents” (The Board of Regents of the University of Texas System, priority 2005, dated 2020).

Test system: Pseudomonas aeruginosa
Conditions: agent on its own; gentian violet after impregnating polymer surfaces incl. polyvinylchloride

[H]/N=C(\N/C(=N/[H])NCCCCCCNC(=N)NC(=N)Nc1ccc(Cl)cc1)Nc1ccc(Cl)cc1 [chlorhexidine]
activity against Pseudomonas aeruginosa: not highly active

CN(C)c1ccc(C(=C2C=CC(=[N+](C)C)C=C2)c2ccc(N(C)C)cc2)cc1 [gentian violet]
activity against Pseudomonas aeruginosa: no activity
